The species named for one assay is Homo sapiens. As to the kind of experiment: Potency of was determined relative to the SQ 29548 by inhibition of aggregation of human platelet rich plasma induced by 10*-6 M U 46619. The class given is functional.
The target in assay [1] is T1, Thromboxane A2 receptor (Homo sapiens) (UniProt P21731).
T1 sequence (whole entry): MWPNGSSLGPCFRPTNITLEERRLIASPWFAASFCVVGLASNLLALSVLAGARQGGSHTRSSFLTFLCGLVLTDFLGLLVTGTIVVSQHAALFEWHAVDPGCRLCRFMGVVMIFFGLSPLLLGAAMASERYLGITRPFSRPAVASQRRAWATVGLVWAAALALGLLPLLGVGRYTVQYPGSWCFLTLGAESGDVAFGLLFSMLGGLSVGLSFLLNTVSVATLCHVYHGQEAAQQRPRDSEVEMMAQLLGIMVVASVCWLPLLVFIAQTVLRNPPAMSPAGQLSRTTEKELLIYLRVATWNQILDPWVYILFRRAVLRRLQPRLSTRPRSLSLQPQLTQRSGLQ
As to the kind of experiment: Competition factor for Thromboxane A2 receptor/Prostaglandin H2 receptor was determined by CF=(ID50-test)/(ID50-standard).

From ChEMBL document CHEMBL1126455, “Syntheses of new metabolically stabilized TXA2/PGH2-receptor antagonists and their biological properties” (1992) come the findings set out here.

For the compound `O=C(O)CCC/C=C\C[C@H]1[C@H](CNS(=O)(=O)c2ccc(F)cc2)C2CC1(c1ccc(F)cc1)CO2` (some centres not stated), the Potency in the assay filed under Homo sapiens stood at 0.03. In assay [1], this compound displayed a CF of 0.3.

In the case of `O=C(O)CCCCCC[C@H]1[C@H](CNS(=O)(=O)c2ccc(Cl)c(Cl)c2)C2CC1(c1ccc(-c3ccccc3)cc1)CO2` (some centres not stated), in the assay listed under Homo sapiens, the Potency is on record as 0.01. For the same compound, the CF in assay [1] stood at 12.

The compound `O=C(O)COCCCC[C@H]1[C@H](CNS(=O)(=O)c2ccc(Cl)cc2)C2CC1(c1ccc(F)cc1)CO2` (some centres not stated) displayed a Potency in the assay filed under Homo sapiens of 0.08. For the same compound, the CF in assay [1] came out at 0.1.

Compound `O=C(O)COCCCC[C@H]1[C@H](CNS(=O)(=O)c2ccc(Cl)c(Cl)c2)C2CC1(c1ccc(F)cc1)CO2` (some centres not stated) had a Potency in the assay listed under Homo sapiens of 0.08. This compound registered a CF in assay [1] of 0.4.

Take `Cc1ccc(S(=O)(=O)NC[C@@H]2C3CC(c4ccc(F)cc4)(CO3)[C@H]2C/C=C\CCCC(=O)O)cc1` (some centres not stated): the Potency in the assay filed under Homo sapiens came out at 0.01. In addition, in assay [1], the CF stood at 0.4.

Consider `O=C(O)COCC=CC[C@H]1[C@H](NS(=O)(=O)c2ccc(F)cc2)C2CC1(c1ccc(F)cc1)CO2` (some centres not stated), for which, in the assay listed under Homo sapiens, the Potency was 0.003. In assay [1], the CF was found to be 400.

For the compound `Cc1ccc(S(=O)(=O)N[C@@H]2C3CC(c4ccc(F)cc4)(CO3)[C@H]2C/C=C\COCC(=O)O)cc1` (some centres not stated), the Potency in the assay filed under Homo sapiens came out at 0.003. In assay [1], the CF was 170.

Regarding `O=C(O)CCC/C=C\C[C@H]1[C@H](CNS(=O)(=O)c2ccc(Cl)c(Cl)c2)C2CC1(c1ccc(F)cc1)CO2` (some centres not stated), the Potency in the assay filed under Homo sapiens is 0.01. This compound displayed a CF in assay [1] of 0.5.

`O=C(O)CCC/C=C\C[C@H]1[C@H](NS(=O)(=O)c2ccc(F)cc2)C2CC1(c1ccc(F)cc1)CO2` (some centres not stated) came in with a Potency in the assay listed under Homo sapiens of 0.0004. The compound further registered a CF in assay [1] of 120.

Take `Cc1ccc(S(=O)(=O)N[C@@H]2C3CC(c4ccc(F)cc4)(CO3)[C@H]2CCCCOCC(=O)O)cc1` (some centres not stated): in the assay filed under Homo sapiens, the Potency amounted to 0.003. The compound further showed a CF in assay [1] of 27.

In the assay filed under Homo sapiens, `O=C(O)CCC/C=C\C[C@H]1[C@H](CNS(=O)(=O)c2ccc(Cl)c(Cl)c2)C2CC1(c1ccc(-c3ccccc3)cc1)CO2` (some centres not stated) showed a Potency of 0.01. Moreover, in assay [1], the CF was 4.2.

As for `O=C(O)CCC/C=C\C[C@H]1[C@H](CNS(=O)(=O)c2ccc(Cl)cc2)C2CC1(c1ccc(F)cc1)CO2` (some centres not stated), the Potency in the assay listed under Homo sapiens was found to be 0.01. The compound also displayed a CF in assay [1] of 0.2.

In the assay listed under Homo sapiens, `Cc1ccc(S(=O)(=O)NC[C@@H]2C3CC(c4ccc(F)cc4)(CO3)[C@H]2CCCCOCC(=O)O)cc1` (some centres not stated) had a Potency of 0.03. Further, the CF in assay [1] was 0.4.

For the compound `O=C(O)COCCCC[C@H]1[C@H](CNS(=O)(=O)c2ccc(F)cc2)C2CC1(c1ccc(F)cc1)CO2` (some centres not stated), the Potency in the assay filed under Homo sapiens turned out to be 0.08. This compound also displayed a CF in assay [1] of 0.5.

With `O=C(O)COCCCC[C@H]1[C@H](CNS(=O)(=O)c2ccc(Cl)c(Cl)c2)C2CC1(c1ccc(-c3ccccc3)cc1)CO2` (some centres not stated), the Potency in the assay filed under Homo sapiens is given as 0.03. In addition, the CF in assay [1] worked out at 3.

`Cc1ccc(S(=O)(=O)N[C@@H]2C3CC(c4ccc(F)cc4)(CO3)[C@H]2C/C=C\CCCC(=O)O)cc1` (some centres not stated) gave a Potency in the assay filed under Homo sapiens of 0.001. In assay [1], this compound had a CF of 45.
